The subject of the assay is CD2F1 mice, L1210 leukemia ip, survival T/C. In words: NCI In Vivo Anticancer Drug Screen. Data for tumor model L1210 Leukemia (intraperitoneal) in CD2F1 (CDF1) mice. Conditions: higher = longer survival. An outline of the steps: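 Tumor-bearing mice (transplanted tumor) were split into treated and vehicle control groups, and the measured endpoint of each treated group was divided by that of its vehicle controls.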

[1] abbreviates: endpoint: mean survival time, dose: 12.5 mg/kg/injection, schedule: Q01DX009 (ip), vehicle: saline.
The mark [2] stands for this setting: endpoint: mean survival time, dose: 25.0 mg/kg/injection, schedule: Q01DX009 (ip), vehicle: saline.
[3] abbreviates: endpoint: mean survival time, dose: 25.0 mg/kg/injection, schedule: Q01DX009 (ip), vehicle: saline with Tween-80.
[4] abbreviates: endpoint: mean survival time, dose: 50.0 mg/kg/injection, schedule: Q01DX009 (ip), vehicle: saline with Tween-80.
Where [5] appears, read: endpoint: mean survival time, dose: 100.0 mg/kg/injection, schedule: Q01DX009 (ip), vehicle: saline with Tween-80.
Where [6] appears, read: endpoint: mean survival time, dose: 200.0 mg/kg/injection, schedule: Q01DX009 (ip), vehicle: saline with Tween-80.
Setting [7] is: endpoint: mean survival time, dose: 400.0 mg/kg/injection, schedule: Q01DX009 (ip), vehicle: saline with Tween-80.
[8] abbreviates: endpoint: mean survival time, dose: 100.0 mg/kg/injection, schedule: Q01DX001 (ip), vehicle: saline.
[9] abbreviates: endpoint: mean survival time, dose: 200.0 mg/kg/injection, schedule: Q01DX001 (ip), vehicle: saline.
The mark [10] stands for this setting: endpoint: mean survival time, dose: 400.0 mg/kg/injection, schedule: Q01DX001 (ip), vehicle: saline.
Where [11] appears, read: endpoint: mean survival time, dose: 100.0 mg/kg/injection, schedule: Q04DX003 (ip), vehicle: other.
[12] abbreviates: endpoint: mean survival time, dose: 200.0 mg/kg/injection, schedule: Q04DX003 (ip), vehicle: other.
The mark [13] stands for this setting: endpoint: mean survival time, dose: 400.0 mg/kg/injection, schedule: Q04DX003 (ip), vehicle: other.

The structures appear in SMILES notation. Several values for one entry are separate records, joined by “and”; a condition that tells them apart may be missing. Equal values may be shown once. Inconclusive results and toxic doses are left out.

Turning to `COC1OC(CO)C(O)C(NC(=O)N(C)N=O)C1O` (stereo not given), the T/C is 111 % of control under setting [1]; 114 % of control under setting [2]; 151 % of control (endpoint: mean survival time, dose: 100.0 mg/kg/injection, schedule: Q01DX009 (ip), vehicle: saline); 157 % of control and 197 % of control (endpoint: mean survival time, dose: 200.0 mg/kg/injection, schedule: Q01DX009 (ip), vehicle: saline); 95 % of control (endpoint: mean survival time, dose: 400.0 mg/kg/injection, schedule: Q01DX009 (ip), vehicle: saline); 121 % of control (endpoint: median survival time, dose: 25.0 mg/kg/injection, schedule: Q01DX009 (ip), vehicle: saline). Also, the T/C runs as follows: (endpoint: median survival time, dose: 100.0 mg/kg/injection, schedule: Q01DX009 (ip), vehicle: saline) 159 % of control and 160 % of control; (endpoint: median survival time, dose: 144.0 mg/kg/injection, schedule: Q01DX005 (ip), vehicle: saline) 158 % of control; (endpoint: median survival time, dose: 200.0 mg/kg/injection, schedule: Q01DX009 (ip), vehicle: saline) 172 % of control and 209 % of control; (endpoint: median survival time, dose: 240.0 mg/kg/injection, schedule: Q01DX005 (ip), vehicle: saline) 170 % of control and 172 % of control; (endpoint: median survival time, dose: 400.0 mg/kg/injection, schedule: Q01DX005 (ip), vehicle: saline) 175 % of control and 225 % of control; (endpoint: median survival time, dose: 400.0 mg/kg/injection, schedule: Q01DX009 (ip), vehicle: saline) 222 % of control and 236 % of control. The T/C is 233 % of control (endpoint: median survival time, dose: 666.66 mg/kg/injection, schedule: Q01DX005 (ip), vehicle: saline) and 92 % of control (endpoint: median survival time, dose: 1111.11 mg/kg/injection, schedule: Q01DX005 (ip), vehicle: saline).
Turning to `O=C1C=CC(=O)N1c1ccc(Cl)cc1`, the T/C is 100 % of control (endpoint: mean survival time, dose: 6.25 mg/kg/injection, schedule: Q01DX001 (ip), vehicle: Klucel (hydroxypropylcellulose) (HPC)); 110 % of control (endpoint: mean survival time, dose: 6.25 mg/kg/injection, schedule: Q01DX009 (ip), vehicle: Klucel (hydroxypropylcellulose) (HPC)); 107 % of control (endpoint: mean survival time, dose: 6.25 mg/kg/injection, schedule: Q04DX003 (ip), vehicle: Klucel (hydroxypropylcellulose) (HPC)); 103 % of control (endpoint: mean survival time, dose: 12.5 mg/kg/injection, schedule: Q01DX001 (ip), vehicle: Klucel (hydroxypropylcellulose) (HPC)); 101 % of control (endpoint: mean survival time, dose: 12.5 mg/kg/injection, schedule: Q01DX009 (ip), vehicle: Klucel (hydroxypropylcellulose) (HPC)); 104 % of control (endpoint: mean survival time, dose: 12.5 mg/kg/injection, schedule: Q04DX003 (ip), vehicle: Klucel (hydroxypropylcellulose) (HPC)). Moreover, the T/C (endpoint: mean survival time, dose: 25.0 mg/kg/injection, schedule: Q01DX009 (ip), vehicle: Klucel (hydroxypropylcellulose) (HPC)) is 96 % of control.
On to `NC(=O)Nc1cc(NC(N)=O)cc(N(CCCl)CCCl)c1`, for which the T/C is, setting by setting: (endpoint: mean survival time, dose: 2.5 mg/kg/injection, schedule: Q01DX009 (ip), vehicle: Klucel (hydroxypropylcellulose) (HPC)) 108 % of control; (endpoint: mean survival time, dose: 5.0 mg/kg/injection, schedule: Q01DX009 (ip), vehicle: Klucel (hydroxypropylcellulose) (HPC)) 111 % of control; (endpoint: mean survival time, dose: 10.0 mg/kg/injection, schedule: Q01DX009 (ip), vehicle: Klucel (hydroxypropylcellulose) (HPC)) 119 % of control.
Take `COC1CCC([NH-])(C[NH-])C(c2ccc3c(c2)OCO3)O1.[Cl][Pt+2][Cl]` (stereo not given): the T/C runs as follows: (endpoint: median survival time, dose: 8.25 mg/kg/injection, schedule: Q04DX003 (ip), vehicle: saline) 103 % of control; (endpoint: median survival time, dose: 17.5 mg/kg/injection, schedule: Q04DX003 (ip), vehicle: saline) 105 % of control; (endpoint: median survival time, dose: 35.0 mg/kg/injection, schedule: Q04DX003 (ip), vehicle: saline) 110 % of control; (endpoint: median survival time, dose: 70.0 mg/kg/injection, schedule: Q04DX003 (ip), vehicle: saline with Tween-80) 108 % of control; (endpoint: median survival time, dose: 70.0 mg/kg/injection, schedule: Q04DX003 (ip), vehicle: saline) 106 % of control; (endpoint: median survival time, dose: 140.0 mg/kg/injection, schedule: Q04DX003 (ip), vehicle: saline with Tween-80) 113 % of control.
With `Nc1ccc(C(=O)CC(O)(C(F)(F)F)C(F)(F)F)cc1`, the T/C is 113 % of control (endpoint: mean survival time, dose: 100.0 mg/kg/injection, schedule: Q04DX003 (ip), vehicle: saline with Tween-80); 111 % of control (endpoint: mean survival time, dose: 200.0 mg/kg/injection, schedule: Q04DX003 (ip), vehicle: saline with Tween-80); 113 % of control (endpoint: mean survival time, dose: 400.0 mg/kg/injection, schedule: Q04DX003 (ip), vehicle: saline with Tween-80).
As for `CC(=O)CCC(=O)OCc1ccccc1`, the T/C reads like this: under setting [3], 102 % of control; under setting [4], 96 % of control; under setting [5], 108 % of control; under setting [6], 101 % of control; under setting [7], 98 % of control.
For the compound `O=C1c2ccccc2C(=O)N1OCCCN1C(=O)c2ccccc2S1(=O)=O`, the T/C was 96 % of control under setting [8], 100 % of control under setting [9] and 100 % of control under setting [10].
In the case of `FC(F)(F)/C([S-])=C(/[S-])C(F)(F)F.[Ni].[c-]1[c-][c-][cH-][c-]1`, the T/C was 92 % of control (endpoint: mean survival time, dose: 9.5 mg/kg/injection, schedule: Q01DX001 (ip), vehicle: other) and 93 % of control (endpoint: mean survival time, dose: 19.0 mg/kg/injection, schedule: Q01DX001 (ip), vehicle: other).
For `Nc1cc(=O)[nH]c(=S)n1-c1ccccn1`, the T/C is 101 % of control (endpoint: mean survival time, dose: 100.0 mg/kg/injection, schedule: Q04DX003 (ip), vehicle: saline); 95 % of control (endpoint: mean survival time, dose: 200.0 mg/kg/injection, schedule: Q04DX003 (ip), vehicle: saline); 97 % of control (endpoint: mean survival time, dose: 400.0 mg/kg/injection, schedule: Q04DX003 (ip), vehicle: saline).
`C1=CC2OC1c1ccccc12`: the T/C is 93 % of control under setting [11], 98 % of control under setting [12] and 93 % of control under setting [13].
As to `NC1C(O)C(O)C(O)C(O)C1O` (stereo not given), the T/C under setting [8] is 98 % of control, the T/C under setting [9] was 98 % of control and the T/C under setting [10] is 98 % of control.
With `Nc1ncc(N)c(N)n1`, the T/C was 102 % of control (endpoint: mean survival time, dose: 250.0 mg/kg/injection, schedule: Q04DX003 (ip), vehicle: saline sonified); 98 % of control (endpoint: mean survival time, dose: 500.0 mg/kg/injection, schedule: Q04DX003 (ip), vehicle: saline sonified); 103 % of control (endpoint: mean survival time, dose: 1000.0 mg/kg/injection, schedule: Q04DX003 (ip), vehicle: saline sonified).
Take `CCC/C=C/C=C/C(=O)OC1/C(=C/C(=O)OC)CC2CC(C(C)O)OC(=O)CC(O)CC3CC(OC(C)=O)C(C)(C)C(O)(CC4C/C(=C/C(=O)OC)CC(/C=C/C(C)(C)C1(O)O2)O4)O3` (stereo not given): the T/C (endpoint: median survival time, dose: 18.75 micrograms/kg/injection, schedule: Q01DX009 (ip), vehicle: saline + alcohol) is 113 % of control and 117 % of control; the T/C (endpoint: median survival time, dose: 37.5 micrograms/kg/injection, schedule: Q01DX009 (ip), vehicle: saline + alcohol) was 124 % of control; the T/C (endpoint: median survival time, dose: 150.0 micrograms/kg/injection, schedule: Q01DX009 (ip), vehicle: saline + alcohol) is 151 % of control.
For the compound `COc1ccc(/C=C(/C(=O)O)c2ccc(OC)cc2)cc1`, the T/C (endpoint: mean survival time, dose: 100.0 mg/kg/injection, schedule: Q01DX009 (ip), vehicle: other) is 98 % of control; the T/C (endpoint: mean survival time, dose: 200.0 mg/kg/injection, schedule: Q01DX009 (ip), vehicle: other) was 102 % of control; the T/C (endpoint: mean survival time, dose: 400.0 mg/kg/injection, schedule: Q01DX009 (ip), vehicle: other) was 98 % of control.
For the compound `Cc1csc(NC(=O)Nc2ccc(F)cc2[N+](=O)[O-])n1`, the T/C by setting is: under setting [1], 103 % of control; under setting [2], 112 % of control; (endpoint: mean survival time, dose: 50.0 mg/kg/injection, schedule: Q01DX009 (ip), vehicle: saline) 103 % of control.
`CCN(CC)C(=O)CS(=O)(=O)c1ccc(C)cc1`: the T/C is, setting by setting: under setting [5], 100 % of control; under setting [6], 100 % of control; under setting [7], 101 % of control.
Consider `CCCCCCCCCCCC(=O)CCCCC`, for which the T/C is 96 % of control under setting [11], 97 % of control under setting [12] and 97 % of control under setting [13].
Take `COc1ccc(CN(CCO)CCCCCCN(CCO)Cc2ccc(OC)cc2)cc1`: the T/C under setting [3] is 93 % of control; the T/C under setting [4] is 96 % of control; the T/C under setting [5] was 98 % of control; the T/C (endpoint: median survival time, dose: 50.0 mg/kg/injection, schedule: Q04DX002 (ip), vehicle: saline) is 100 % of control; the T/C (endpoint: median survival time, dose: 100.0 mg/kg/injection, schedule: Q04DX002 (ip), vehicle: saline) was 100 % of control.

(Values after PubChem BioAssay AID256 (DTP/NCI, 2004).)
